Where two headings read alike, the source gives them in different places. Peptide text beside a SMILES is read from it.
Key:
[1] = test system: honeybees exposed to H. alvei; test: H. alvei infection survival assay; assay type: in vivo, Apis mellifera; details: adult worker bees fed 450 μg/ml tetracycline in sucrose syrup, then orally exposed to H. alvei SMH01 for 24 h; N = 30 bees per group; Mantel-Cox test, P < 0.05
Procedure: Using in vivo virulence assays, we first explored whether H. alvei is pathogenic to adult honeybees. One H. alvei strain SMH01 was isolated from the worker bee gut. Then we investigated if the strain contributes to increased mortality of bees with normal or disturbed gut microbiota. Adult worker bees were collected from a brood frame in the hive and were treated with or without tetracycline. After introduction in the lab, groups of bees were fed filter-sterilized sucrose syrup (controls) or tetracycline suspended in the diet (Tet) for 5 days (Fig. 1A). Then we challenged bees with H. alvei SMH01. Bees were orally exposed to H. alvei in their food for 24 h. […] To confirm the pathogenicity of H. alvei to honeybees, we performed histology of honeybee guts exposed to H. alvei. […] Damaged tissue presented barely preserved mucosal architecture of the rectum in H. alvei-infected bees (Fig. 1C and D).
Approximately 200 adult worker bees were collected from brood frame from the hive kept at Miyun County, Beijing (March 2019). The bees were immobilized at 4°C and were divided into two cohorts (control and tetracycline treatment) distributed to cup cages as previously described ([11]). The cup cages were maintained in an incubator at 35°C, with humidity of 50%. Each cohort has five replicating cup cages containing ∼20 bees in each cup. […]

[2] = test system: H. alvei; assay type: cell-based, Hafnia alvei
Procedure: To verify the inhibitory effect of AMPs secreted by honeybees on H. alvei, we performed an in vitro AMP resistance assay (Table S2 in the supplemental material). A. mellifera expresses two dominant apidaecin isoforms (Ia, Ib) at a ratio of approximately 1 : 20 ([31]). […] However, low concentration (8–16 μg/ml) of apidaecin-1a and 1b inhibited the growth of H. alvei, and the pathogen was slightly more resistant to apidaecin Ia than to Ib.
To test the activity of AMPs against H. alvei, growth inhibition assays in liquid media were performed using 50% diluted HIA media. AMPs synthesized by GL Biochem and Sangon Biotech were serially diluted in 96-well plates to obtain concentrations of 0.5 to 512 µg/ml. Overnight grown H. alvei cultures from HIA media were diluted to 1 × 10^6 CFU/ml in 50% Heart Infusion Broth. Optical density was recorded after 24 h of incubation at 35°C, 5% CO2.

[3] = H. alvei 1 × 10^6 CFU/ml in 50% Heart Infusion Broth, optical density after 24 h at 35°C, 5% CO2

Compound: CN(C)[C@@H]1C(O)=C(C(N)=O)C(=O)[C@@]2(O)C(O)=C3C(=O)c4c(O)cccc4[C@@](C)(O)[C@H]3C[C@@H]12 [Tetracycline, tetracycline]
- survivorship of honeybees after exposure to H. alvei [1]: reduced survivorship

Compound: CC[C@H](C)[C@H](NC(=O)[C@H](CCCCN)NC(=O)[C@@H]1CCCN1C(=O)[C@H](CC(N)=O)NC(=O)[C@H](Cc1ccccc1)NC(=O)[C@@H]1CCCN1C(=O)CNC(=O)[C@H](CCC(N)=O)NC(=O)CNC(=O)[C@@H]1CCCN1C(=O)[C@H](Cc1ccccc1)NC(=O)[C@@H](NC(=O)[C@@H]1CCCN1C(=O)[C@H](Cc1ccccc1)NC(=O)[C@@H]1CCCN1C(=O)[C@H](CCCNC(=N)N)NC(=O)[C@H](CCCNC(=N)N)NC(=O)CNC(=O)[C@@H]1CCCN1C(=O)[C@H](CCC(N)=O)NC(=O)[C@@H]1CCCN1C(=O)[C@@H](NC(=O)[C@H](CC(N)=O)NC(=O)[C@@H]1CCCN1C(=O)[C@H](CC(C)C)NC(=O)[C@@H]1CCCN1C(=O)[C@@H](NC(=O)[C@@H](N)Cc1ccc(O)cc1)C(C)C)[C@@H](C)CC)[C@@H](C)O)C(=O)N[C@@H](CCCCN)C(=O)N[C@@H](Cc1c[nH]c2ccccc12)C(=O)N1CCC[C@H]1C(=O)N[C@@H](CCC(N)=O)C(=O)NCC(=O)N[C@@H](Cc1ccc(O)cc1)C(=O)O [abaecin] (H-YVPLPNIPQPGRRPFPTFPGQGPFNPKIKWPQGY-OH; N-terminus and C-terminus assumed)
- MIC ([2]; 24 h): > 512 µg/mL

Compound: apidaecin-1a
- low concentration that inhibited the growth of H. alvei [2, 3]: 8 to 16 µg/mL

Compound: apidaecin-1b
- low concentration that inhibited the growth of H. alvei [2, 3]: 8 to 16 µg/mL
- concentration with a profound inhibition on the growth of H. alvei ([2]; in vitro growth inhibition, 24 h, 35°C, 5% CO2): ≥ 4 µg/mL

Compound: hymenoptaecin
- MIC ([2]; H. alvei 1 × 10^6 CFU/ml in 50% Heart Infusion Broth, AMPs serially diluted 0.5 to 512 µg/ml in 96-well plates, optical density after 24 h at 35°C, 5% CO2): > 512 µg/mL

Source: article PMC8729767, “Specific Strains of Honeybee Gut Lactobacillus Stimulate Host Immune System to Protect against Pathogenic Hafnia alvei” (Microbiology Spectrum, 2022)
